Results reported in article PMC9501633, “Synthesis, Characterisation and Mechanism of Action of Anticancer 3-Fluoroazetidin-2-ones” (Pharmaceuticals, 2022).

What was measured:
[1] = system: purified bovine brain tubulin; design: method as in PMID 31954879; conditions: 10 μM; cited from earlier work
[2] = AlamarBlue cell viability assay, non-tumourigenic cells; format: cell-based, human; conditions: human, HEK-293T cells (non-tumourigenic), 1 μM
Method: (§1) The cytotoxicity of the potent β-lactam 33 was investigated in the non-tumourigenic HEK-293T cell line (normal human embryonic kidney) at 72 h. […] For example, the cell viability of HEK cells at 1 μM was 88% in contrast to the cell viability of 36% for MCF-7 cells at 1 μM.
(§2) Cells were seeded at a density of 5 × 10^3 cells/well (MCF-7 and MDA-MB-231) and 1 × 10^4 cells/well (HEK-293T) in 96-well plates (200 μL per well). After 24 h, cells were then treated with medium alone, with vehicle (1% ethanol (v/v)) or with CA-4 or β-lactam compounds at 1 μM and 10 μM concentrations. […] Cell proliferation for MCF-7 cells was analysed with the AlamarBlue assay (Invitrogen Corp.) as previously described by us. […] Fluorescence results were obtained with a 96-well fluorimeter with excitation at 530 nm and emission at 590 nm with results recorded as percentage viability relative to vehicle control (100%). […]
(§3) Figure 4 Antiproliferative activity of 3-fluoro β-lactams on MCF-7, MDA-MB-231, Hs578T and Hs578T isogenic subclone Hs578T(i)8 breast cancer cells and non-tumourigenic HEK-293T cells. […] Cell viability was expressed as a percentage of vehicle control (ethanol 1% (v/v))-treated cells. […] Cell viability was expressed as a percentage of vehicle control (ethanol 1% (v/v))-treated cells and was measured by AlamarBlue assay (average of three independent experiments). […]

HEK-293T cells = test: as above; format: cell-based, human; conditions: Homo sapiens, 72 h
Method: as §1, §2, §3

[3] = Stability in phosphate buffers (HPLC); format: physicochemical
Method: (§4) The β-lactam ring is known to undergo hydrolysis/degradation depending on the substituent type on the ring. For example, degradation of monocyclic β-lactam antibiotic aztreonam increased with elevated humidity, temperature and acidic pH buffer. Ezetimibe, a monocyclic β-lactam drug used to reduce blood cholesterol, undergoes degradation and hydrolysis more rapidly in neutral and basic pH conditions than in acidic pH [71]. The stability of representative compounds 33 and 39 was also determined at pH 4, pH 7.4 (plasma) and pH 9 (intestine) by HPLC. […] The electron-withdrawing effect of the 3-fluoro substituent may result in decreasing stability of the β-lactam ring in response to acid hydrolysis.
(§5) The stability study for compounds 33 and 39 was performed using analytical HPLC (Symmetry column (C18, […], 4.6 × 150 mm), dual wavelength absorbance detector (Waters 2487), binary HPLC pump (Waters 1525) and autosampler (Waters 717 plus)) with mobile phase acetonitrile (70%)/water (30%), flow rate 1 mL/min over 15 min and detection at λ 254 nm. Stock solutions of compounds 33 and 39 (1 mg/mL in mobile phase) were used. Dilutions of 0.5 mg/mL, 0.25 mg/mL, 0.125 mg/mL, 0.0625 mg/mL, 0.03125 mg/mL, 0.015625 mg/mL and 0.0078 mg/mL were prepared for the calibration curve. (i) Stability of 33 and 39 in phosphate buffers: The phosphate buffers were prepared in accordance with the British Pharmacopoeia 2020 at pH values 4, 7.4 and 9. Stock solution, 300 µL (1 mg/mL ACN), was added to a vial containing buffer (9.7 mL), mixed and pre-heated to 37 °C. 1 mL of the solution was introduced into an HPLC vial. Samples (10 µL) were injected and analysed at time intervals of t = 0 min, 5 min, 30 min, 60 min and hourly for 24 h. The analysis was performed in triplicate. (ii) Thermal stability: Compounds 33 and 39 (1 mL stock solution) were each placed in a vial for 4 h at 60 °C on a heating block. The sample was then cooled, diluted with acetonitrile and analysed by HPLC. (iii) Photostability study: Compounds 33 and 39 (stock solution, 1 mL) were placed in a vial, exposed to UV light for 4 h and then analysed by HPLC. (iv) Stability in acidic conditions: HCl (0.1 M, 0.2 mL) was added to stock solutions (0.8 mL) of 33 and 39 in a vial. The vial was vortexed and retained at room temperature. A sample was neutralised with NaOH (0.1 M, 0.2 mL) each hour for 4 h and then analysed by HPLC. (v) Stability of 33 and 39 in basic (alkaline) conditions: NaOH (0.1 M, 0.2 mL) was added to stock solution (0.8 mL) in a vial. The vial was vortexed and retained at room temperature. A sample was neutralised with HCl (0.1 M, 0.2 mL) every hour for 4 h then analysed by HPLC. (vi) Stability of 33 and 39 in oxidising conditions: H2O2 (3%, 0.2 mL) was added to the stock solution (0.8 mL). The vial was vortexed to obtain a homogeneous mixture and retained at room temperature, and a sample was analysed by HPLC every hour for 4 h.

[4] = Stability under degradation conditions (HPLC); format: physicochemical
Method: as §4, §5

Row | SMILES | reduction in the Vmax of tubulin polymerisation [1] [fold] | viability at 72 h, 1 µM [2] [%] | IC50 (HEK-293T cells) [µM] | remaining at 24 h, 0.03 mg/mL ([3]; phosphate buffer pH 4, 37 °C) [%] | remaining at 24 h, 0.03 mg/mL ([3]; phosphate buffer pH 7.4, 37 °C) [%] | remaining at 24 h, 0.03 mg/mL ([3]; phosphate buffer pH 9, 37 °C) [%] | remaining at 0.03 mg/mL ([3]; phosphate buffer, pH 11 (as printed in Table S7)) [%] | remaining at 4 h, 0.8 mg/mL ([4]; 0.1 M HCl added to stock solution, acidic (0.1 M HCl)) [%] | remaining at 4 h, 0.8 mg/mL ([4]; 0.1 M NaOH added to stock solution, alkaline (0.1M NaOH)) [%] | remaining at 4 h, 0.8 mg/mL ([4]; 3% H2O2 added to stock solution, oxidative (3% H2O2)) [%] | remaining at 4 h, 1 mg/mL ([4]; stock solution in acetonitrile/water under UV light, UV light) [%] | remaining at 4 h, 1 mg/mL ([4]; stock solution in acetonitrile/water, heated, heat (60 °C)) [%]
1 | COc1ccc(/C=C\c2cc(OC)c(OC)c(OC)c2)cc1O [CA-4, combretastatin A-4, reference compound] | 6.3 |  |  |  |  |  |  |  |  |  |  | 
2 | COc1ccc(C2C(F)C(=O)N2c2cc(OC)c(OC)c(OC)c2)cc1F (stereo not drawn) [Compound 33, 3-Fluoro-4-(3-fluoro-4-methoxyphenyl)-1-(3,4,5-trimethoxyphenyl)azetidin-2-one] |  | 88 | > 50 | 76 | 87 | 26 | 26 | 60 | 65 | 65 | 88 | 90
